Measurements as given in ChEMBL document CHEMBL1146541, “New cytotoxic indolic metabolites from a marine Streptomyces” (2003).
The source made the active and inactive calls.

Assays:
K562 = experiment: Cytotoxicity against human K562 cells; format: functional
LNCaP = experiment: Cytotoxicity against human LNCAP cells; format: functional, cell-based
HMEC-1 = experiment: Cytotoxicity against human HMEC1 cells; format: functional, cell-based
PANC-1 = experiment: Cytotoxicity against human PANC1 cells; format: functional, cell-based
LoVo [1] = experiment: Cytotoxicity against human LoVo cells; format: functional, cell-based
LoVo [2] = experiment: Cytotoxicity against doxorubicin-resistant human LoVo cells; format: functional, cell-based

Measured: Activity

CC(C)=CCc1ccc2c(CC#N)c[nH]c2c1
inactive: all assays above
